From ChEMBL document CHEMBL1154481, “Pharmacophore modeling of diverse classes of p38 MAP kinase inhibitors” (Eur J Med Chem, 2008)

Experiment: Inhibition of p38 MAPK

Structure (SMILES) | IC50
COc1cc2[nH]ccc2cc1C(=O)N1C[C@H](C)N(Cc2ccccc2)C[C@H]1C | 1300 nM
O=C(c1cccc2[nH]ccc12)N1CCN(Cc2ccccc2)CC1 | 4700 nM
O=c1ccc(-c2c(-c3ccc(F)cc3)nc3ccccn23)nn1-c1c(Cl)cccc1Cl | 49 nM
COC[C@H](C)Nc1cc(-c2c(-c3ccccc3)nc3nc(N)ccn23)ccn1 | 2 nM
O=C1CCC(c2c(-c3cccc(C(F)(F)F)c3)nc3ccccn23)=NN1c1ccccc1Cl | 170 nM
Nc1ccn2c(-c3ccnc(NCc4ccccc4)c3)c(-c3ccc(F)cc3)nc2n1 | 6 nM
O=C1NCc2nc(Sc3ccccc3)ccc2N1c1c(Cl)cccc1Cl | 270 nM
Cc1ccccc1-c1nc(N(C(N)=O)c2c(F)cccc2F)c2ncn(C)c2n1 | 140 nM
Cc1ccc(NC(=O)c2ccnc(N3CCOCC3)c2)cc1Nc1ccnc(OC2CCN(C)CC2)n1 | 40 nM
O=C1NCc2c(-c3ccc(F)cc3Cl)cc(C3CCN(CC4CCC4)CC3)cc2N1c1c(Cl)cccc1Cl | 0.6 nM
Nc1nc(N)c(F)c(-c2nc(-c3cccc(C(F)(F)F)c3)c(-c3ccncc3)[nH]2)c1F | 470 nM
CC(C)(C)N1CCC(c2cc(-c3ccc(F)cc3Cl)c3c(c2)N(c2c(Cl)cccc2Cl)C(=O)NC3)CC1 | 0.2 nM
Cc1ccccc1N1N=C(c2c(-c3ccc(F)cc3F)nc3ccccn23)CCC1=O | 8 nM
Nc1ccn2c(-c3ccncn3)c(-c3ccccc3)nc2n1 | 990 nM
Fc1ccc(-c2[nH]c3ccc4[nH]c(Cc5ccccc5)nc4c3c2-c2ccncc2)cc1 | 22 nM
O=C1CCC(c2c(-c3ccc(F)cc3F)nc3ccccn23)=NN1c1c(Cl)cccc1Cl | 8 nM
O=C1NCc2c(-c3ccc(F)cc3Cl)cc(C3CCN(CC4CC4)CC3)cc2N1c1c(Cl)cccc1Cl | 0.5 nM
COc1ccc(C#CC(C)(C)N)cc1C(=O)c1ccc(Nc2ccc(F)cc2F)cc1 | 14 nM
Cc1ccccc1Sc1ccc2c(n1)CNC(=O)N2c1c(Cl)cccc1Cl | 110 nM
O=C(c1ccc2[nH]cc(CN3CCOCC3)c2c1)N1CCC(Cc2ccccc2)CC1 | 6600 nM
CCN(CC)CCCn1ccc2cc(C(=O)N3CCC(Cc4ccccc4)CC3)c(Cl)cc21 | 200 nM
